US10577382B2, “Fused heterocyclic compound” (TAKEDA PHARMACEUTICAL COMPANY LIMITED, priority 2016, dated 2020)

Legend:
[1] = molecular target: T1, phosphorylated CLK2 protein (Ser98) (Homo sapiens, UniProt P49760); assay: In vitro CLK2 phosphorylation inhibitory action in HCT116 cells (western blot); assay type: cell-based; details: 300 nM, 16 hours, relative to control group
T1 construct: endogenous in cells; host or cells: HCT116 (ATCC)
Procedure: (§1) 1000 μl (8,0000 cells/well) of a cell suspension of human colon adenocarcinoma cells HCT116 (purchased from ATCC) was seeded in a 12-well plate, and cultured at 37° C. for 2 days in a 5% CO2 gas incubator. The test compound solution was added to a final concentration of 300 nM, and the mixture was cultured for 16 hours. The plate was washed with PBS, a protein extract (10% glycerol, 1% sodium dodecyl sulfate, 62.5 mM Tris-HCl (pH: 7.5)) was then added to dissolve the cells, and the solution was treated at 95° C. for 5 minutes. Thereafter, the amount of protein was determined using BCA Protein Assay Kit (Thermo Fisher Scientific).
(§2) The amount of the protein in each sample was adjusted, SDS-PAGE was then performed, and the protein was transferred to a PVDF membrane using an iBlot (registered trademark) gel transfer system (Invitrogen). […] The membrane was washed in the same procedure as described above, a phosphorylated CLK2 protein, a MDM4 protein, a p53 protein and a p21 protein each labeled with an antibody were then made chemiluminescent using ImmunoStar ZETA (Wako Pure Chemical Industries, Ltd.), and luminescence was detected with LAS-3000 Image Analyzer (Fujifilm Corporation). The luminescence intensity was determined using Multi Gauge Ver. 3.1 (Fujifilm Corporation), and quantified. […]

HCT116 cells = assay: Growth inhibitory activity using HCT116 cells (Cell Titer-Glo); assay type: cell-based, human; details: Homo sapiens, HCT-116, 72 h, compound 1 μM, 3 days, read-out: Cell growth inhibition ratio at compound concentration of 1 μM
Procedure: HCT 116 cells (ATCC) were seeded in a 384-well plate at a density of 6×10^2 cells/well, and cultured overnight in a cell culture medium McCoy's 5A (Thermo Fisher Scientific) containing 10% FBS (fetal bovine serum) and 1% penicillin/streptomycin. The dissolved test compound was added in the cell medium, and the cell medium was left standing in a CO2 incubator (37° C.) for 3 days. A Cell Titer-Glo solution (Promega Corporation) was added, the mixture was stirred at room temperature for 10 minutes, and the emission value was measured by Envision (PerkinElmer). The inhibition ratio (%) of HCT116 cell growth by the test compound was calculated in accordance with the following expression. Inhibition ratio (%)=(1−(count of test compound−blank)÷(control−blank))×100
The count of the HCT116 cell suspension without addition of the compound was described as a control, and the count without addition of the compound and addition of HCT116 cells was described as a blank. The concentration at which the inhibition ratio was 50% was defined as an IC50 value.

[2] = tested on: MDM4 transcription product (MDM4 FL / MDM4 S); assay: In vitro MDM4 alternative splicing ratio in HCT116 cells (quantitative PCR); assay type: cell-based, human; details: 300 nM, 6 hours, PSI = MDM4 FL/(MDM4 FL + MDM4 S) x 100, Control (DMSO) 75.75
Procedure: 1000 μl (20,0000 cells/well) of a cell suspension of human colon adenocarcinoma cells HCT116 (purchased from ATCC) was seeded in a 12-well plate, and cultured at 37° C. for 1 day in a 5% CO2 gas incubator. The test compound solution was added to a final concentration of 300 nM, and the mixture was cultured for 6 hours. The plate was washed with PBS, the cells were then dissolved using RNeasy Mini Kit (QIAGEN), and RNA was extracted. Using cDNA after reverse transcription reaction, the number of copies of the MDM4 transcription product containing exon 6 (MDM4 FL) and the MDM4 transcription product in which exon 6 was skipped (MDM4 S) was measured by quantitative PCR. Primers with the following sequences were used for the measurement.
Primers with the following sequences were used for the measurement.
The following oligos were used for preparing a calibration curve.
A change in MDM4 alternative splicing ratio (PSI) is calculated in accordance with the following expression, and changes caused by the test compound are shown in Table 8. PSI=(number of copies of MDM4 FL÷(number of copies of MDM4 FL+number of copies of MDM4 S))×100

p21 protein = assay: p21 induction activity in HCT116 cells (western blot); assay type: cell-based, human; details: 300 nM, 16 hours, relative to control group
Procedure: as §1, §2

[3] = tested on: tumor derived from a myelogenous leukemia patient having a mutation in the SF3B1 gene; assay: Antitumor action on tumor-bearing model derived from patient with acute myeloid leukemia having SF3B1 gene mutation; assay type: in vivo; details: 50 mg/kg orally twice a day on 2 days per week for 2 weeks; NOG female mice; tumor volume
Procedure: A tumor derived from a myelogenous leukemia patient having a mutation in the SF3B1 gene was subcutaneously transplanted into mice to establish a clinical tumor model capable of undergoing in vivo passage. A fragment of the tumor was subcutaneously transplanted into a six-week-old NOG female mice (CLEA Japan, Inc.) with a trocar, the tumor diameter of the developed tumor was measured 52 days after the transplantation, and the tumor volume was calculated in accordance with the following expression. Tumor volume=long diameter×short diameter×short diameter×(½)
Individuals with a tumor developed to a tumor volume of about 200 mm^3 were selected, and six mice per group were used for the experiment. A 0.5% methylcellulose solution (Wako Pure Chemical Industries, Ltd.) suspension of the test compound was orally administered at a dose of 50 mg/kg (10 mL/kg) twice a day on 2 days per week for 2 weeks. The tumor volume was chronologically measured on the day before the start of administration and every 3 to 4 days, the tumor diameter was finally measured on the day after completion of administration for 14 days, and the tumor volume was calculated.
The tumor growth in the test compound administration group with respect to the control administration group was calculated as a T/C value in accordance with the following expression. […]

T1 sequence (P49760 whole entry): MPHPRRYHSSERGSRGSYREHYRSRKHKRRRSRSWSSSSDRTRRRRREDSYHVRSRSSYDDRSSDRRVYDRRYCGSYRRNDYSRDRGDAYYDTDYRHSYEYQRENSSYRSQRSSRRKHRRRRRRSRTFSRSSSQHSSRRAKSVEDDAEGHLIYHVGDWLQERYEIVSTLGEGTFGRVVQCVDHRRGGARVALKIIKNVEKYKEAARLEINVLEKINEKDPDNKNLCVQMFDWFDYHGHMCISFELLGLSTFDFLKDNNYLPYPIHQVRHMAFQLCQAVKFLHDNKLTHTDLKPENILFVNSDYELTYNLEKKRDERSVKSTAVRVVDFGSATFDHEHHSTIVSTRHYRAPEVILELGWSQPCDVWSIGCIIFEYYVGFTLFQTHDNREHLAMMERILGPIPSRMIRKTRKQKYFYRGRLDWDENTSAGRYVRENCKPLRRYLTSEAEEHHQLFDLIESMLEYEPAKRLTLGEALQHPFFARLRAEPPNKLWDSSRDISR

In the case of `COc1ncnn2ccc(-c3cnc4nc(C)n(Cc5nnc([C@@H](C)F)o5)c4c3)c12` [Example 286, 1-((5-((1R)-1-fluoroethyl)-1,3,4-oxadiazol-2-yl)methyl)-6-(4-methoxypyrrolo[2,1-f][1,2,4]triazin-5-yl)-2-methyl-1H-imidazo[4,5-b]pyridine], the “Residual ratio (phosphorylated CLK2)” value [1] is reported as 71.4%, the inhibition at 1 µM (HCT116 cells) is reported as 95% and the “PSI (MDM4 alternative splicing ratio)” value [2] is reported as 45.81. The “Increase ratio (p21)” value (p21 protein) was 556.4% and the “T/C (%)” value [3] was −30.4%.
